# In US20260207551A1, “PHOSPHOGLICERATE DEHYDROGENASE INHIBITORS FOR THE TREATMENT OF FIBROSIS” (CHIESI FARMACEUTICI S.P.A., priority 2022, published 2026):
# Read-outs that look alike come from different tables or passages of the source.
# What was measured:
# [1] = tested on: alpha smooth muscle actin (α-SMA); assay: TGF-b induced α-SMA expression in NHLFs (Western blot); format: cell-based, Human; conditions: NHLF, TGF-β (10 ng/ml) 48 h
# Source text: The antifibrotic activity of compounds of the present invention has been monitored measuring the expression of fibrotic mediators, collagen I (Col-I) and alpha smooth muscle actin (α-SMA) after treatment in lung cells with TGF-β in comparison with Nintedanib (see Frank Hilberg et al, Cancer Res 2008 Jun. 15; 68(12):4774-82), and allosteric inhibitor NCT-503 (see Hamanaka et al., Am J Respir Cell Mol Biol. 2018 May; 58(5):585-593).
# (§1) Human normal lung fibroblasts (NHLFs) were purchased from Lonza (Basel, Switzerland). NHFLs were cultured in Eagle's Minimum Essential medium (EMEM) w/o serine and glycine, supplemented with 10% Fetal Bovine Serum (FBS), antibiotics (50 U/ml penicillin and 0.05 mg/ml streptomycin) and 2 mM L-glutamine, in an atmosphere of 95% air and 5% CO2 at 37° C. NHLFs cultures were used between passage 1 and 9. Before all the experiments, cells were incubated overnight in serum-free medium.
# NHLFs were seeded in 12-well plates at cultured until 70% of confluency. To examine the expression of fibrotic markers, cells were treated with different concentrations of Compounds and NCT-503 in EMEM medium for 1 h followed by stimulation with TGF-β for 48 h at 37° C., 5% CO2. Following cell treatments, medium was removed and whole cell extracts were prepared by directly adding to the well the 1× loading buffer (125 mM Tris-HCl pH 6.8, 4% SDS, 0.2% Orange G, 50% glycerol, 2.5% β-mercaptoethanol, Li-cor Biosciences), boiled for 5 min and then electrophoresed on Mini protean TGX gel 4-12% (Biorad). After electrophoresis, proteins were transferred to a nitrocellulose membrane. Immunodetection of Col-I, α-SMA and glyceraldeide 3-phosphate dehydrogenase (GAPDH) were obtained by using mouse anti-CollA1 (Santacruz), mouse anti-α-SMA (sigma) and rabbit anti-GAPDH (Cell Signaling Technology) all diluted at 1:1000 in TBS-tween 0.1%. […] Detection and quantification were performed with Odyssey imaging system (Li-cor) using GAPDH as loading control.
# NHLFs = assay: FBS induced proliferation of NHLFs (BrdU incorporation); format: cell-based, Human
# Experimental: as §1
# The antiproliferative activity of compounds of the present invention has been monitored measuring the incorporation of bromodeoxyuridine (BrdU), a thymidine analog of DNA, in newly synthesized DNA after treatment in lung cells. Briefly, NHLFs were seeded in 96-well and treated with different concentrations of Compound 19 and NCT-503 in EMEM medium for 1 h followed by stimulation with Fetal Bovine Serum (FBS) for 72 h at 37° C., 5% CO2. After cell treatments, 10 μl/well BrdU labeling solution was added for incorporation in proliferating cells for 2 h at 37° C., 5% CO2. After removing the culture medium, the cells are fixed, and the DNA is denatured by adding FixDenat followed by incubation with 100 μl/well Anti-BrdU-POD for detection. The reaction product is quantified by measuring the absorbance at the respective wavelength using a scanning multiwell spectrophotometer (ELISA reader).
# [2] = Plasma and tissue exposure in PK/PD model; format: in vivo, mouse male (C57BL/6J); conditions: male, C57BL/6J, mouse, 300 mg/kg, 1 h, 6.5 h and 24.5 h
# Experimental: Animals were fasted overnight before treatment. Following 0.5 h from administration of either Compound 19 at dose of 300 mg/kg or vehicle (0.5% Tween 80, 0.5% Methylcellulose in H2O), ^13C6-glucose was administered by oral gavage (2 g/kg, Merck Life Science Srl). Blood, lung, and brain samples were collected at 1 h, 6.5 h and 24.5 h after treatment with Compound 19 or vehicle.
# The tissue concentration of ^13C3-serine was determined by a liquid chromatography-tandem mass spectrometry (LC/MS/MS) assay. GraphPad Prism (version 8.1.2) was used for drawing graphs and for statistical analysis. Plasma or tissue homogenate samples (tissues were homogenized with a water/acetonitrile 50/50 mixture) were extracted with 3 volumes of acetonitrile. Supernanatant was injected into HPLC system (Agilent 1260 Quaternary Pump equipped with an Agilent 1200 High Performance Autosampler SL; Agilent), using a Kinetex EVO C18 analytical column (100 A, 50×2.1 mm, 2.6 μm; Phenomenex) for the analysis of Compound 19 or an InfinityLab Poroshell 120 Hilic-Z (50×2.1 mm 2.7 μm; Agilent) for the analysis of ^13C3-serine. […]
# Mass spectrometric analysis was performed on a linear ion trap triple quadrupole mass spectrometer (4000 Q TRAP; AB SCIEX) equipped with a turbo spray ion source; mass spectrometer was operated in positive ion mode and quantification was achieved by multiple reaction monitoring (MRM) mode. […]
# [3] = tested on: bleomycin-induced pulmonary fibrosis; assay: Bleomycin-induced pulmonary fibrosis in male mice (Example 5)
# Experimental: Male C57BL6/J mice (7-8 weeks old) were purchased from the Envigo RMS (San Pietro al Natisone (UD), Italy). All mice were maintained under pathogen-free conditions and were provided food and water ad libitum.
# Lung injury was induced by double oropharyngeal instillation of Bleomycin hydrochloride (BLM, BAXTER) at day 0 and day 4 at the doses of 0.02 U/mouse in 50 μl of saline solution (0.9%). Control animals received double oropharyngeal instillation of 50 μl of saline solution.
# Compound 19 was orally administered twice daily, starting on day 7 after the first oropharyngeal administration of bleomycin at the two doses of 400 and 600 mg/kg/day, 10 ml/kg, dissolved in 0.5% Tween 80, 0.5% Methylcellulose in H2O and treatment lasted for two weeks.
# A group of animals was treated with Nintedanib esylate salt, at the dose of 60 mg/kg/day, 10 ml/kg, once daily, to compare the efficacy of the test compounds with an FDA approved drug for the treatment of IPF patients. Control mice were given vehicle-only over the same time intervals. Weight of all animals has been assessed twice a week starting from day 0 until day 21.
# On days 21, mice were anesthetized by intraperitoneal injection of thiopental (200 mg/kg/10 ml; pentothal sodium, MSD Animal Health Srl). Blood was withdrawn by cardiac puncture and collected in heparine tubes. Plasma was obtained after centrifugation of blood at 10,000 g for 10 min. Lungs were lavage with saline solution through the heart, formalin fixed and paraffin embedded, and sections were stained with Masson's Trichrome to evaluate the grade and severity of fibrosis and collagen deposition.
# Masson's Trichrome stained slides were also scanned with NanoZoomer S60 (Hamamatsu Photonics K.K., Shizuoka, Japan) and acquired into the Visiopharm Integrator System (VIS; version 2017.2.4.3387) for a quantification of pulmonary fibrosis by automated analysis with the support of a VIS Analysis Protocol Package (APP). The present APP has been designed to identify and then quantify the fibrotic tissue, detecting accumulation of altered connective tissue, excess of collagen deposition and cellular density.
# To quantify lung protein content and the levels of specific proteins as markers of fibrosis and collagen deposition, lungs from subgroups of animals were weighted, homogenized in Phosphate buffer solution (PBS) and proteins of interest were quantified by immunometric or colorimetric assays. Hydroxyproline content was determined using the Hydroxyproline Colorimetric Assay Kit (Sigma MAK008, USA) according to the manufacturer's protocol. WISP-1, CollagenI, pro-CollagenI and Elastin were determined by Elisa kits. Protein quantification was performed using DC Protein Assay (Bio-Rad Laboratories, Italy). Plasma serine levels were measured using the DL-Serine Assay Kit (Abcam, Cambridge, MA).
# [4] = Plasma exposure after the last dose in bleomycin model (Example 5); format: in vivo, Male C57BL6/J mice; conditions: 0.5 h, 2 h and 7 h
# Experimental: The Bioanalysis of Compound 19 in plasma was carried out under the same experimental conditions as reported in Example 3.
# Plasma exposure of Compound 19 was determined following the last oral dose at three timepoints (0.5 h, 2 h and 7 h).
smiles,measurement,setting,value
"CC(C)C(C(=O)O)c1ccc(C2(NC(=O)c3cc4c(Cl)c(Cl)ccc4n3C)CCOC2)cc1 (racemic) [Compound 19, (±)-2-(4-(3-(4,5-Dichloro-1-methyl-1H-indole-2-carboxamido)tetrahydro-furan-3-yl)phenyl)-3-methylbutanoic acid]","inhibition of release of α-SMA (comparison, FIG. 2)",[1]; Compound 19 50 uM vs NCT-503 50 uM and Nintedanib 1 uM,in a more efficacious manner than the NCT-503 (50 uM) and even more than the Nintedanib (1 uM)
same,inhibition at 50 µM,"[1]; Homo sapiens, 50 uM, read-out: TGF-b induced a-sma (% inh. 50 uM)",97%
same,IC50,"NHLFs; Homo sapiens, NHLF, FBS 72 h, confidence interval in brackets, NA: not active, read-out: FBS induced proliferation (pIC50-C.I.) (converted)",631 nM
same,cell proliferation induced by serum treatment (FIG. 3),"NHLFs; NHLFs, 72 h",able to reduce the cell proliferation
same,Kp,"[2]; brain / plasma, read-out: mean brain/plasma ratio",0.01
same,Kp,"[2]; lung / plasma, read-out: mean lung/plasma ratio",0.4
same,circulating serine levels in plasma,[3]; 400 and 600 mg/kg/day,significant reduction at both doses
same,reduction of lung/body weight,"[3]; Compound 19 highest dose (600 mg/kg/day), Nintedanib esylate 60 mg/kg/day, not significant",−31%
same,body weight during 2-weeks of treatment,[3]; compared to BLM/Vehicle treated group,did not lose additional weight
same,Ashcroft score (FIG. 11A),[3]; day 21,reduced
same,"collagen content (automatic collagen deposition quantification, FIG. 13)",[3]; day 21,reached statistical significance with the highest dose
same,frequency of Ashcroft score classes (FIG. 11B),[3]; day 21,reduced the frequency of the most severe scores of fibrosis
same,reduction of tissue area occupied by fibrotic lesions (automated analysis),[3]; day 21,~25%
same,"severity of fibrosis (automated analysis, FIG. 12)",[3]; day 21,significant reduction of severity of fibrosis
same,deaths during treatment,"[3]; highest tested dose (600 mg/kg/day), two animals died in BLM/Vehicle group",only one animal died
same,"lung levels of Hydroxyproline, Collagen I and WISP-1",[3]; lung homogenates,significantly reduced
same,plasma exposure following the last oral dose,[4],good oral exposure
